According to patent publication US7468462B2, “Therapeutic agents for the treatment of cancer, metabolic diseases and skin disorders” (Auspex Pharmaceuticals, priority 2004, dated 2008):

Target: T1, RAR-α (Homo sapiens, UniProt P10276)
T1 construct: The Plasmid pGEG-hRAR-α for full-length RAR-α expression; made in house; host or cells: E. coli BL21 (DE3)
T1 sequence (P10276 1-462): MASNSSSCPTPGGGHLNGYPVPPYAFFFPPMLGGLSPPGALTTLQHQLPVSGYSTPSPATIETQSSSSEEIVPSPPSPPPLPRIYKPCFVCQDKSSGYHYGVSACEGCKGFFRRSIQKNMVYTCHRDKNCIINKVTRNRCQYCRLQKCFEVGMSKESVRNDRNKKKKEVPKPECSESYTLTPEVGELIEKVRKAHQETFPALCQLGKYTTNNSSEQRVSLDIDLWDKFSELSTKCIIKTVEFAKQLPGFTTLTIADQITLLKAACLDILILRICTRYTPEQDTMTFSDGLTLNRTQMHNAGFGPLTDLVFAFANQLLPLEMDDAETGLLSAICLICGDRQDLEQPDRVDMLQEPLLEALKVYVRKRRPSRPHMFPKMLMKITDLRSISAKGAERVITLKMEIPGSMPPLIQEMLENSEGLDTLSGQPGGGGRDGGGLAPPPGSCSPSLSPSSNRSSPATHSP
Assay: Competitive radioligand (tritium labeled tRA) hydroxylapatite binding assay in E. coli expressed RAR-α
Conditions: read-out: Kd (mircomolar)
Procedure: After correcting for non-specific binding, IC50 values were determined.

| Kd [µM] | Structure (SMILES) |
| --- | --- |
| 0.3 | COc1ccc(-c2ccc3cc(C(=O)O)ccc3c2)cc1C12CC3CC(CC(C3)C1)C2 [Adapalene] |
| 16 | COc1ccc(-c2ccc3cc(C4=C(O)CCC4=O)ccc3c2)cc1C12CC3CC(CC(C3)C1)C2 [Example 8, 2-[6-(3-Adamantan-1-yl-4-methoxyphenyl)-naphthalen-2-yl]-3-hydroxy-cyclopent-2-enone] |
